Measurements reported in patent publication US20260365656A1, “PYRAZOLE DERIVATIVE, AND PHARMACEUTICALLY ACCEPTABLE SALT, STEREOISOMER, PHARMACEUTICAL COMPOSITION AND USE THEREOF” (STARG (WUHAN) PHARMACEUTICAL TECHNOLOGY CO., LTD, priority 2023, published 2026).
Where a name gives a salt, the structure may show the parent alone.

Columns and labels:
CDK1/cyclin B1 = molecular target: T1, CDK1/cyclin B1 (Homo sapiens, UniProt P06493); experiment: In Vitro CDK1/Cyclin B1 Enzyme Activity Assay (TR-FRET); type: biochemical; details: in words
T1 construct: purchased Carna Biosciences
Method: Experimental Example 2: In Vitro CDK1/Cyclin B1 Enzyme Activity Assay
CDK1/cyclin B1 was purchased from Carna Biosciences. Ulight-4E-BP1 peptide, Eu-anti-phospho-tyrosine antibody, and 1× detection buffer were purchased from PerkinElmer. High-purity ATP was purchased from Promega. EDTA was purchased from Sigma. Nivo multimode plate reader (PerkinElmer) was used.
Preparation of Kinase Buffer Solution: The kinase buffer solution consisted 50 mM HEPES, 1 mM EDTA, 10 mM MgCl2, and 0.01% Brij-35, with pH of 7.4. 2.38 g HEPES, 58 mg EDTA, 406 mg MgCl2, and 20 mg Brij-35 were added to 200 mL buffer, and the pH was adjusted to 7.4.
The stop solution was prepared by mixing 100 μL of 1 M EDTA stock solution with 0.625 μL of 1× detection buffer solution and 1725 μL of distilled water.
The enzyme, Ulight-4E-BP1 peptide, ATP, and the inhibitor were diluted using the kinase buffer solution.
The Eu-anti-phospho-tyrosine antibody was diluted to a concentration of 8 nM/L using the detection buffer solution.
The test compound was serially diluted 5-fold using a multichannel pipette to the 8th concentration, i.e., from 4 μM to 0.0512 nM. The final concentration of DMSO was 4%, and the experiment was set up with duplicate wells. 2.5 μL of each gradient concentration of the inhibitor, 5 μL of CDK1/cyclin B1 enzyme (0.5 ng), and 2.5 μL of a mixture of substrate and ATP (4 mM ATP, 200 nM Ulight-4E-BP1 peptide) were added to a microplate, resulting in a final concentration gradient of the compound from 1 μM to 0.0128 nM, with final ATP and substrate concentrations of 1 mM and 50 nM, respectively. The reaction system was incubated at 25 °C for 60 minutes. After the reaction, 5 μL of the stop solution was added to each well, and further reacted at 25 °C for 5 minutes to terminate the reaction. Then 5 μL of Eu-anti-phospho-tyrosine antibody dilution was added to each well, and the mixture was incubated at 25 °C for 60 minutes. Data were collected using the PerkinElmer Nivo multimode plate reader in TR-FRET mode (excitation wavelength: 320 nm; emission wavelengths: 615 nm and 665 nm).
The raw data were converted to inhibition rates using the equation (Sample−Min)/(Max−Min)×100%. The IC50 value was obtained by fitting the data to a four-parameter curve (using log(inhibitor) vs. response—Variable slope model in GraphPad Prism). Table 1 provides the enzyme inhibitory activity of the compounds of the present application against CDK1/cyclin B1.

[1] = Pharmacokinetic Study of Test Compounds Administered Orally and Intravenously in Mice; type: in vivo, mouse (ICR, male); details: ICR mice
Description: Experimental Example 5: Pharmacokinetic Study of Test Compounds Administered Orally and Intravenously in Mice
This study used ICR male mice as test animals. The plasma concentrations of the test compounds and the reference compound in mice were quantitatively determined at different time points using the LC-MS/MS method following intravenous injection or oral administration to evaluate the pharmacokinetic characteristics of the test compounds in mice.
ICR mice (male, 20-30 g, 6-8 weeks old, Beijing Charles River).
A clear solution of the test compound was administered to ICR mice (fasted overnight or fed) via tail vein injection or oral gavage. For intravenous injection, blood samples (50 μL) were collected via cheek puncture at 0 h (pre-dose) and at 0.083, 0.25, 0.5, 1, 2, 4, 6, 8, and 24 h post-dose into anticoagulant tubes containing sodium heparin. The mixtures were thoroughly vortexed at 4 °C and centrifuged at 6000 rpm for 3 minutes. For oral gavage, blood samples were collected via cheek puncture at 0 h (pre-dose) and at 0.083, 0.25, 1, 2, 4, 6, 8, and 24 h post-dose into anticoagulant tubes containing sodium heparin. The mixtures were vortexed thoroughly, and centrifuged at 6000 rpm for 3 minutes. Plasma drug concentrations were determined using the LC-MS/MS method. Pharmacokinetic parameters were calculated using Phoenix WinNonlin 8.2.0 pharmacokinetic software with a non-compartmental model and linear-logarithmic trapezoidal rule.

T1 sequence (P06493 whole entry): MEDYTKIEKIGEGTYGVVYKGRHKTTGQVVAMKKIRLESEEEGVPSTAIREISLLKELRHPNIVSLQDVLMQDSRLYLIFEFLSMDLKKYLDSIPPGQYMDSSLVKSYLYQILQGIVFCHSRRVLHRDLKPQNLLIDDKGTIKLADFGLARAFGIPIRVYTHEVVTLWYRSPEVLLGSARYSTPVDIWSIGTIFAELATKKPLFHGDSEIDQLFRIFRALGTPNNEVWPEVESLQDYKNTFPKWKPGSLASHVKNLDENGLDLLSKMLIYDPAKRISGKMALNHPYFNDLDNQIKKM
T1 sequence (P14635 whole entry partner): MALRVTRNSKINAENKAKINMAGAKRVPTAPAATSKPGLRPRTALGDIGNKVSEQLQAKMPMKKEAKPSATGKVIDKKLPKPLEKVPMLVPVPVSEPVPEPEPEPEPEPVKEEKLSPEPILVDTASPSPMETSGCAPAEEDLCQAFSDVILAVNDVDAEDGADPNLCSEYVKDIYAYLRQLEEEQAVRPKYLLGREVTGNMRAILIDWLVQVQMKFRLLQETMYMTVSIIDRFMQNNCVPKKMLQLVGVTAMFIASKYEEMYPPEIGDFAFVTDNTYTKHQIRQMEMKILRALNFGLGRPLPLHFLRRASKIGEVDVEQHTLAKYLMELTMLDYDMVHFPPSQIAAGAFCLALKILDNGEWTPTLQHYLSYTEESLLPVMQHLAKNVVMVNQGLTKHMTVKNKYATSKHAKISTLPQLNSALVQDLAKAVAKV

CONCc1nn2ccnc(Nc3cc([C@H]4CC[C@@H](OC(=O)NC(C)C)C4)[nH]n3)c2c1F [Compound 5]
selectivity for CDK2 over CDK1 compared to PF-07104091 (CDK1/cyclin B1): superior selectivity compared to PF-07104091

CON(C)Cc1nn2ccnc(Nc3cc([C@H]4CC[C@@H](OC(=O)NC(C)C)C4)[nH]n3)c2c1F [Compound 6]
selectivity for CDK2 over CDK1 compared to PF-07104091 (CDK1/cyclin B1): superior selectivity compared to PF-07104091

CONCc1nn2ccnc(Nc3cc([C@H]4CC[C@@H](OC(=O)NC(C)C)C4)[nH]n3)c2c1C [Formate salt of compound 1]
selectivity for CDK2 over CDK1 compared to PF-07104091 (CDK1/cyclin B1): superior selectivity compared to PF-07104091

CON(C)Cc1nn2ccnc(Nc3cc([C@H]4CC[C@@H](OC(=O)NC(C)C)C4)[nH]n3)c2c1C [Formate salt of compound 2]
selectivity for CDK2 over CDK1 compared to PF-07104091 (CDK1/cyclin B1): superior selectivity compared to PF-07104091

CNOCc1nn2ccnc(Nc3cc([C@H]4CC[C@@H](OC(=O)NC(C)C)C4)[nH]n3)c2c1F [Hydrochloride salt of Compound 7]
selectivity for CDK2 over CDK1 compared to PF-07104091 (CDK1/cyclin B1): superior selectivity compared to PF-07104091

CNOCc1nn2ccnc(Nc3cc([C@H]4CC[C@@H](OC(=O)NC(C)C)C4)[nH]n3)c2c1C [Hydrochloride salt of compound 3]
selectivity for CDK2 over CDK1 compared to PF-07104091 (CDK1/cyclin B1): superior selectivity compared to PF-07104091

COCc1cc(C(=O)Nc2cc([C@H]3CC[C@@H](OC(=O)NC(C)C)C3)[nH]n2)n(C)n1 [PF-07104091]
Apparent volume of distribution Vdss ([1]; intravenous, 5 mg/Kg): 11.8 L/kg | Area under plasma concentration-time curve AUC0-last ([1]; intravenous, 5 mg/Kg): 1645 ng·h/mL | Clearance CL ([1]; intravenous, 5 mg/Kg): 50.3 mL/min/kg | Half-life T1/2 ([1]; intravenous, 5 mg/Kg): 2.68 h | Bioavailability F ([1]; oral 30 mg/Kg vs intravenous 5 mg/Kg): 76.2% | Area under plasma concentration-time curve AUC0-last ([1]; oral, 30 mg/Kg): 7524 ng·h/mL | Peak concentration Cmax ([1]; oral, 30 mg/Kg): 6317 ng/mL | Time to peak Tmax ([1]; oral, 30 mg/Kg): 0.25 h
